# Measurements as given in patent US10906863B1, “Hydroxytyrosol 4-methoxycinnamic acid ester with antibacterial activity and a method of preparing the same” (SHAANXI UNIVERSITY OF SCIENCE AND TECHNOLOGY, priority 2020, dated 2021).
# Tested on: methicillin-resistant Staphylococcus aureus MRSA 18-222
# Assay: MIC by microbroth dilution, MRSA 18-222
# Format: cell-based
# Conditions: Staphylococcus aureus; drug-resistant MRSA, strain not named in the text (value matches 18-222)
# Excerpt: (§1) The minimal inhibitory concentration (MIC) of the compound as determined by a microbroth dilution method with gentamicin, cefazolin sodium and ceftriaxone sodium as positive control.
# (§2) The experimental strains included methicillin-resistant Gram-positive bacteria: methicillin-resistant Staphylococcus aureus MRSA 18-222, 18-575; multiple drug-resistant […] bacteria: vancomycin-resistant enterococci VRE 18-80,18-94, multidrug-resistant Pseudomonas aeruginosa MDR-PA 18-1774,18-202, carbapenem-resistant Acinetobacter baumannii CR-AB 18-183,18-560. All the experimental strains were donated by Huashan Hospital affiliated to Fudan University (Institute of antibiotics, Fudan University) and used after routine identification.
# (§3) Preparation of MHB medium: 20.0 g MHB medium was added to 1 L distilled water, boiled until completely dissolved, packed in conical bottles and sterilized at 121° C. for 15 min.
# (§4) The experimental strain was cultured to the logarithmic growth phase: under aseptic condition, the experimental strain was inoculated into 100 mL MHB medium and incubated in a constant temperature and humidity incubator at 37° C. for 20-22 hours.
# (§5) Preparation of storage solution: weigh the sample to be tested, dissolve it with 1% DMSO solution, prepare a storage solution with a concentration of 2560 μg/mL, weigh a positive reference substance, dissolve it with aseptic distilled water, and configure a storage solution with a concentration of 2560 μg/mL.
# (§6) Under aseptic condition, the experimental strains cultured to logarithmic growth phase were adjusted to 0.5 MCF turbidity standard with MHB medium and […], and the bacterial suspension with concentration of 10^6 CFU/mL was prepared for standby.
# (§7) Dilution of storage solution and inoculation of experimental strain: under aseptic condition, the storage solution was diluted to 256 μg/mL solution. Take a sterile 96-well plate, add 200 μL MHB medium to the 12th well, and add 100 μL MHB medium to each well. Add 100 μL of positive control solution to the first well, mix well, and suck 100 μL from it and discard. Add 100 μL of the compound sample solution to the second well, mix well, and then pipette 100 μL to the third well. After mixing, pipette 100 μL to the fourth well, and dilute to the 11th well in this way. Finally, 100 μL was pipetted from the 11th well and discarded. The 12th hole was the growth control without drugs. So far, the concentration of the positive reference substance is 128 μg/mL, the concentrations of the sample solution are 128, 64, 16, 8, 4, 2, 1, 0.5, 0.25 μg/mL respectively. Then, 10 μL of the prepared bacterial suspension is added to each well, so that the final concentration of the bacterial liquid in each well is 5×10^5 CFU/mL.
# (§8) Incubation: Cover the 96-well plate inoculated with the experimental strains, and incubate in a constant temperature and humidity box at 37° C. for 20-22 hours.
# (§9) In FIGS. 1-10, the twelve wells represent twelve groups, from left to right, positive, 128 μg/mL, 64 μg/mL, 32 μg/mL, 16 μg/mL, 8 μg/mL, 4 μg/mL, 2 μg/mL, 1 μg/mL, 0.25 μg/mL, 0.0625 μg/mL, Negative.
row,Compound,MIC [µg/mL]
1,"COc1ccc(/C=C/C(=O)OCCc2ccc(O)c(O)c2)cc1 [(E)-3,4-dihydroxyphenethyl 3-(4-methoxyphenyl)acrylate]",4

# Same assay, conditions: strain MRSA 18-222; microbroth dilution, 37° C., 20-22 hours
row,Compound,Minimum Bacteriostatic Concentration [µg/mL]
1,gentamicin,128
2,"Cc1nnc(SCC2=C(C(=O)O)N3C(=O)[C@@H](NC(=O)Cn4cnnn4)[C@H]3SC2)s1 [Cefazolin sodium, cefazolin sodium]",>128
3,"COc1ccc(/C=C/C(=O)OCCc2ccc(O)c(O)c2)cc1 [(E)-3,4-dihydroxyphenethyl 3-(4-methoxyphenyl)acrylate]",4
4,COc1ccc(C=CC(=O)O)cc1 [4-methoxycinnamic acid],>128
5,OCCc1ccc(O)c(O)c1 [Hydroxytyrosol],>128
6,"CO/N=C(\C(=O)N[C@@H]1C(=O)N2C(C(=O)O)=C(CSc3nc(=O)c(=O)[nH]n3C)CS[C@H]12)c1csc(N)n1 [Ceftriaxone sodium, ceftriaxone sodium]",>128

# Tested on: methicillin-resistant Staphylococcus aureus MRSA 18-575
# Assay: MIC by microbroth dilution, MRSA 18-575
# Format: cell-based
# Conditions: strain MRSA 18-575, 37° C., 20-22 hours
# Excerpt: as §1, §2, §3, §4, §5, §6, §7, §8, §9
row,Compound,Minimum Bacteriostatic Concentration [µg/mL]
1,gentamicin,2
2,"Cc1nnc(SCC2=C(C(=O)O)N3C(=O)[C@@H](NC(=O)Cn4cnnn4)[C@H]3SC2)s1 [Cefazolin sodium, cefazolin sodium]",>128
3,"COc1ccc(/C=C/C(=O)OCCc2ccc(O)c(O)c2)cc1 [(E)-3,4-dihydroxyphenethyl 3-(4-methoxyphenyl)acrylate]",32
4,COc1ccc(C=CC(=O)O)cc1 [4-methoxycinnamic acid],>128
5,OCCc1ccc(O)c(O)c1 [Hydroxytyrosol],>128
6,"CO/N=C(\C(=O)N[C@@H]1C(=O)N2C(C(=O)O)=C(CSc3nc(=O)c(=O)[nH]n3C)CS[C@H]12)c1csc(N)n1 [Ceftriaxone sodium, ceftriaxone sodium]",>128

# Tested on: vancomycin-resistant enterococci VRE 18-80
# Assay: MIC by microbroth dilution, VRE 18-80
# Format: cell-based
# Conditions: strain VRE 18-80, 37° C., 20-22 hours
# Excerpt: as §1, §2, §3, §4, §5, §6, §7, §8
row,Compound,Minimum Bacteriostatic Concentration [µg/mL]
1,gentamicin,0.0625
2,"Cc1nnc(SCC2=C(C(=O)O)N3C(=O)[C@@H](NC(=O)Cn4cnnn4)[C@H]3SC2)s1 [Cefazolin sodium, cefazolin sodium]",32
3,"COc1ccc(/C=C/C(=O)OCCc2ccc(O)c(O)c2)cc1 [(E)-3,4-dihydroxyphenethyl 3-(4-methoxyphenyl)acrylate]",>128
4,COc1ccc(C=CC(=O)O)cc1 [4-methoxycinnamic acid],>128
5,OCCc1ccc(O)c(O)c1 [Hydroxytyrosol],>128
6,"CO/N=C(\C(=O)N[C@@H]1C(=O)N2C(C(=O)O)=C(CSc3nc(=O)c(=O)[nH]n3C)CS[C@H]12)c1csc(N)n1 [Ceftriaxone sodium, ceftriaxone sodium]",8

# Tested on: vancomycin-resistant enterococci VRE 18-94
# Assay: MIC by microbroth dilution, VRE 18-94
# Format: cell-based
# Conditions: strain VRE 18-94, 37° C., 20-22 hours
# Excerpt: as §1, §2, §3, §4, §5, §6, §7, §8
row,Compound,Minimum Bacteriostatic Concentration [µg/mL]
1,gentamicin,>128
2,"Cc1nnc(SCC2=C(C(=O)O)N3C(=O)[C@@H](NC(=O)Cn4cnnn4)[C@H]3SC2)s1 [Cefazolin sodium, cefazolin sodium]",>128
3,"COc1ccc(/C=C/C(=O)OCCc2ccc(O)c(O)c2)cc1 [(E)-3,4-dihydroxyphenethyl 3-(4-methoxyphenyl)acrylate]",>128
4,COc1ccc(C=CC(=O)O)cc1 [4-methoxycinnamic acid],>128
5,OCCc1ccc(O)c(O)c1 [Hydroxytyrosol],>128
6,"CO/N=C(\C(=O)N[C@@H]1C(=O)N2C(C(=O)O)=C(CSc3nc(=O)c(=O)[nH]n3C)CS[C@H]12)c1csc(N)n1 [Ceftriaxone sodium, ceftriaxone sodium]",>128

# Tested on: multidrug-resistant Pseudomonas aeruginosa MDR-PA 18-174
# Assay: MIC by microbroth dilution, MDR-PA 18-174
# Format: cell-based
# Conditions: Pseudomonas aeruginosa; MDR-PA, strain not named in the text (value matches 18-174)
# Excerpt: as §1, §2, §3, §4, §5, §6, §7, §8, §9
row,Compound,MIC [µg/mL]
1,"COc1ccc(/C=C/C(=O)OCCc2ccc(O)c(O)c2)cc1 [(E)-3,4-dihydroxyphenethyl 3-(4-methoxyphenyl)acrylate]",8

# Same assay, conditions: strain MDR-PA 18-174; microbroth dilution, 37° C., 20-22 hours
row,Compound,Minimum Bacteriostatic Concentration [µg/mL]
1,gentamicin,0.0625
2,"Cc1nnc(SCC2=C(C(=O)O)N3C(=O)[C@@H](NC(=O)Cn4cnnn4)[C@H]3SC2)s1 [Cefazolin sodium, cefazolin sodium]",8
3,"COc1ccc(/C=C/C(=O)OCCc2ccc(O)c(O)c2)cc1 [(E)-3,4-dihydroxyphenethyl 3-(4-methoxyphenyl)acrylate]",8
4,COc1ccc(C=CC(=O)O)cc1 [4-methoxycinnamic acid],>128
5,OCCc1ccc(O)c(O)c1 [Hydroxytyrosol],>128
6,"CO/N=C(\C(=O)N[C@@H]1C(=O)N2C(C(=O)O)=C(CSc3nc(=O)c(=O)[nH]n3C)CS[C@H]12)c1csc(N)n1 [Ceftriaxone sodium, ceftriaxone sodium]",128

# Tested on: multidrug-resistant Pseudomonas aeruginosa MDR-PA 18-202
# Assay: MIC by microbroth dilution, MDR-PA 18-202
# Format: cell-based
# Conditions: strain MDR-PA 18-202, 37° C., 20-22 hours
# Excerpt: as §1, §2, §3, §4, §5, §6, §7, §8
row,Compound,Minimum Bacteriostatic Concentration [µg/mL]
1,gentamicin,0.0625
2,"Cc1nnc(SCC2=C(C(=O)O)N3C(=O)[C@@H](NC(=O)Cn4cnnn4)[C@H]3SC2)s1 [Cefazolin sodium, cefazolin sodium]",128
3,"COc1ccc(/C=C/C(=O)OCCc2ccc(O)c(O)c2)cc1 [(E)-3,4-dihydroxyphenethyl 3-(4-methoxyphenyl)acrylate]",>128
4,COc1ccc(C=CC(=O)O)cc1 [4-methoxycinnamic acid],>128
5,OCCc1ccc(O)c(O)c1 [Hydroxytyrosol],>128
6,"CO/N=C(\C(=O)N[C@@H]1C(=O)N2C(C(=O)O)=C(CSc3nc(=O)c(=O)[nH]n3C)CS[C@H]12)c1csc(N)n1 [Ceftriaxone sodium, ceftriaxone sodium]",16

# Tested on: carbapenem-resistant Acinetobacter baumannii CR-AB 18-183
# Assay: MIC by microbroth dilution, CR-AB 18-183
# Format: cell-based
# Conditions: strain CR-AB 18-183, 37° C., 20-22 hours
# Excerpt: as §1, §2, §3, §4, §5, §6, §7, §8
row,Compound,Minimum Bacteriostatic Concentration [µg/mL]
1,gentamicin,>128
2,"Cc1nnc(SCC2=C(C(=O)O)N3C(=O)[C@@H](NC(=O)Cn4cnnn4)[C@H]3SC2)s1 [Cefazolin sodium, cefazolin sodium]",>128
3,"COc1ccc(/C=C/C(=O)OCCc2ccc(O)c(O)c2)cc1 [(E)-3,4-dihydroxyphenethyl 3-(4-methoxyphenyl)acrylate]",>128
4,COc1ccc(C=CC(=O)O)cc1 [4-methoxycinnamic acid],>128
5,OCCc1ccc(O)c(O)c1 [Hydroxytyrosol],>128
6,"CO/N=C(\C(=O)N[C@@H]1C(=O)N2C(C(=O)O)=C(CSc3nc(=O)c(=O)[nH]n3C)CS[C@H]12)c1csc(N)n1 [Ceftriaxone sodium, ceftriaxone sodium]",>128

# Tested on: carbapenem-resistant Acinetobacter baumannii CR-AB 18-560
# Assay: MIC by microbroth dilution, CR-AB 18-560
# Format: cell-based
# Conditions: strain CR-AB 18-560, 37° C., 20-22 hours
# Excerpt: as §1, §2, §3, §4, §5, §6, §7, §8
row,Compound,Minimum Bacteriostatic Concentration [µg/mL]
1,gentamicin,>128
2,"Cc1nnc(SCC2=C(C(=O)O)N3C(=O)[C@@H](NC(=O)Cn4cnnn4)[C@H]3SC2)s1 [Cefazolin sodium, cefazolin sodium]",>128
3,"COc1ccc(/C=C/C(=O)OCCc2ccc(O)c(O)c2)cc1 [(E)-3,4-dihydroxyphenethyl 3-(4-methoxyphenyl)acrylate]",>128
4,COc1ccc(C=CC(=O)O)cc1 [4-methoxycinnamic acid],>128
5,OCCc1ccc(O)c(O)c1 [Hydroxytyrosol],>128
6,"CO/N=C(\C(=O)N[C@@H]1C(=O)N2C(C(=O)O)=C(CSc3nc(=O)c(=O)[nH]n3C)CS[C@H]12)c1csc(N)n1 [Ceftriaxone sodium, ceftriaxone sodium]",>128

# Tested on: drug-resistant bacteria
# Assay: Antibacterial activity test, whole panel of drug-resistant strains
# Format: cell-based
# Conditions: summary over the tested drug-resistant strains
# Excerpt: as §1, §2, §3, §4, §5, §6
# Dilution of storage solution and inoculation of experimental strain: under aseptic condition, the storage solution was diluted to 256 μg/mL solution. Take a sterile 96-well plate, add 200 μL MHB medium to the 12th well, and add 100 μL MHB medium to each well. Add 100 μL of positive control solution to the first well, mix well, and suck 100 μL from it and discard. […]
row,Compound,inhibitory effect on drug-resistant bacteria (result in words)
1,"COc1ccc(/C=C/C(=O)OCCc2ccc(O)c(O)c2)cc1 [(E)-3,4-dihydroxyphenethyl 3-(4-methoxyphenyl)acrylate]",excellent antibacterial activity
2,COc1ccc(C=CC(=O)O)cc1 [4-methoxycinnamic acid],no inhibitory effect
3,OCCc1ccc(O)c(O)c1 [Hydroxytyrosol],no inhibitory effect
